In patent publication US20190059368A1, “3,5-DIMETHOXYSTILBENE ANALOGS AND USES THEREOF” (The United States of America, as represented by the …, priority 2017, published 2019):
Values after ≈ are worked out from the molar mass of the structure shown. Read-outs that look alike come from different tables or passages of the source. Marks after values point to notes of the source that are not given here.

How the values were obtained:
[1] = test system: adults of ORL and PR strains of Ae. aegypti; assay: Adult mosquito assay, ORL and PR strains; type: in vivo; details: for Percent Mortality: adults, 6.25%, 24 h
Protocol: (§1) Further tests were performed on compounds 11 and 12 to determine their effect on larvae and adult mosquitoes. The compounds were tested in the standard bioassays using the Orlando (ORL), pesticide-susceptible strain and the Puerto Rico (PR), pyrethroid-resistant strain of Ae. aegypti. The ORL strain has been in continuous colony since 1952 with no pesticide exposure while the resistant PR strain was colonized from egg papers collected near San Juan, PR in June, 2012. The PR strain is available as a resistant reference strain through BEIResources/CDC. Mortality was determined in the larval assays at four different concentrations (1, 0.5, 0.25, and 0.1 μg/μl) and three concentrations for adults (6.25%, 3.125%, and 1.56%). Mortality was recorded 24 h post-application, and in all assays, a negative solvent and a positive control using permethrin were utilized; tests were done in triplicate. Assays were conducted according to published procedures as described in Wanner, J. et al. (Curr. Bioact. Compd. 2015, 11, 13).

[2] = test system: larvae of ORL and PR strains of Ae. aegypti; type: in vivo; details: for Percent Mortality: larvae, 24 h
Protocol: as §1

[3] = test system: Mycobacterium intracellulare ATCC 23068; assay: Antimicrobial microplate assay (modified CLSI, AlamarBlue); type: cell-based; details: ATCC23068, My. intracellulare
Protocol: (§2) All organisms were obtained from the American Type Culture Collection (ATCC; Manassas, Va., USA) and included the fungi Cryptococcus neoformans ATCC 90113 and the bacteria Staphylococcus aureus ATCC 29213, methicillin-resistant S. aureus ATCC 33591 (MRSA), and Mycobacterium intracellulare ATCC 23068. All organisms were tested using modified versions of the CLSI (formerly NCCLS) methods. For all organisms excluding My. intracellulare, optical density was used to monitor growth. Medium supplemented with 5% AlamarBlue® (BioSource International, Camarillo, Calif., USA) was utilized for growth detection of My. intracellulare. Samples (dissolved in DMSO) were serially diluted in 20% DMSO/saline and transferred (10 μl) in duplicate to 96-well flat-bottom microplates. Inocula were prepared by correcting the OD630 of microbe suspensions in Sabouraud Dextrose for Cr. neoformans, cation-adjusted Mueller-Hinton (Difco) at pH 7.3 for Staphylococcus spp., and 5% AlamarBlue® (BioSource International) in Middlebrook 7H9 broth with OADC enrichment, pH=7.0 for My. intracellulare, to afford an assay volume of 200 μl and final target inocula of: Cr. neoformans.: b 1.5×10^3, My. intracellulare: 2.0×10^6, and Staphylococcus spp.,: 5.0×10^5 CFU/ml. Final sample test concentrations were 1/100th the DMSO stock concentration. […] All organisms were read at either 530 nm using the Biotek Powerwave XS plate reader (Bio-Tek Instruments, VT) or 544ex1590em (My. intracellulare) using the Polarstar Galaxy Plate Reader (BMG LabTechnologies, Germany) before and after incubation: Staphylococcus spp. at 35° C. for 16-20 h, Cr. neoformans at 35° C. for 70-74 h, and My. intracellulare at 37° C. and 10% CO2 for 70-74 h. IC50 Values (concentrations that afford 50% inhibition relative to controls) werecalculated using XLfit 4.2 software (IDBS, Alameda, Calif.) using fit model 201.

Ae. aegypti larvae = assay: Larvicidal bioassay against 1-day-old Ae. aegypti larvae (screening and dose-response); type: in vivo, Aedes aegypti
Protocol: Analogs were screened for activity against Ae. aegypti larvae following a bioassay system described in Ali, A., et al. (J. Med. Entomol. 2014, 51, 824). Ae. aegypti larvae used in these studies were from a laboratory colony maintained at the Mosquito and Fly Research Unit at the Center for Medical, Agricultural and Veterinary Entomology, USDA-ARS, Gainesville, Fla. For larval bioassays, the eggs were hatched and the larvae were maintained at a temperature of 27±2° C. and 60±10% RH with a photoperiod regimen of 12:12 hour (Light:Dark). Five 1-day-old Ae. aegypti larvae were added into a droplet of H2O to each well of 24-well plates (BD Labware, Franklin Lakes, N.J., USA) by use of a disposable 22.5-cm Pasteur pipette. A quantity of 50 μl of larval diet (2% slurry of 3:2 beef liver powder (Now Foods, Bloomingdale, Ill., USA) and Brewer's yeast (Lewis Laboratories Ltd., Westport, Conn., USA) was added to each well using a Finnpipette stepper (Thermo Fisher, Vantaa, Finland). All chemicals tested were diluted in DMSO. A quantity of 11 μl of the test chemical was added to the labeled wells, while 11 μl of DMSO was added to control treatments. After the treatment application, the plates were swirled in clockwise and counterclockwise motions and front and back and side to side five times to ensure even mixing of the chemicals. Larval mortality was recorded 24 hours post-treatment. […] Three dosages, 100, 50, and 25 ppm, were used in the screening bioassay to determine the larvicidal activity and each treatment was replicated twice. […] Each treatment was replicated ten times. LC50 Values for larvicidal data were calculated using SAS, Proc Probit. Control mortality was corrected using the Abbott's formula.

[4] = test system: Cryptococcus neoformans ATCC 90113; assay: Antimicrobial microplate assay (modified CLSI); type: cell-based; details: Cryptococcus neoformans, ATCC90113; Cr. neoformans
Protocol: All organisms were obtained from the American Type Culture Collection (ATCC; Manassas, Va., USA) and included the fungi Cryptococcus neoformans ATCC 90113 and the bacteria Staphylococcus aureus ATCC 29213, methicillin-resistant S. aureus ATCC 33591 (MRSA), and Mycobacterium intracellulare ATCC 23068. All organisms were tested using modified versions of the CLSI (formerly NCCLS) methods. For all organisms excluding My. intracellulare, optical density was used to monitor growth. Medium supplemented with 5% AlamarBlue® (BioSource International, Camarillo, Calif., USA) was utilized for growth detection of My. intracellulare. Samples (dissolved in DMSO) were serially diluted in 20% DMSO/saline and transferred (10 μl) in duplicate to 96-well flat-bottom microplates. Inocula were prepared by correcting the OD630 of microbe suspensions in Sabouraud Dextrose for Cr. neoformans, cation-adjusted Mueller-Hinton (Difco) at pH 7.3 for Staphylococcus spp., and 5% AlamarBlue® (BioSource International) in Middlebrook 7H9 broth with OADC enrichment, pH=7.0 for My. intracellulare, to afford an assay volume of 200 μl and final target inocula of: Cr. neoformans.: b 1.5×10^3, My. intracellulare: 2.0×10^6, and Staphylococcus spp.,: 5.0×10^5 CFU/ml. Final sample test concentrations were 1/100th the DMSO stock concentration. Drug controls (Ciprofloxacin (ICN Biomedicals, Ohio, USA) for bacteria and Amphotericin B (ICN Biomedicals) for fungi) were included in each assay. All organisms were read at either 530 nm using the Biotek Powerwave XS plate reader (Bio-Tek Instruments, VT) or 544ex1590em (My. intracellulare) using the Polarstar Galaxy Plate Reader (BMG LabTechnologies, Germany) before and after incubation: Staphylococcus spp. at 35° C. for 16-20 h, Cr. neoformans at 35° C. for 70-74 h, and My. intracellulare at 37° C. and 10% CO2 for 70-74 h. IC50 Values (concentrations that afford 50% inhibition relative to controls) werecalculated using XLfit 4.2 software (IDBS, Alameda, Calif.) using fit model 201.

[5] = test system: Staphylococcus aureus ATCC 29213; assay: Antimicrobial microplate assay (modified CLSI); type: cell-based; details: ATCC29213, S. aureus
Protocol: as §2

[6] = test system: methicillin-resistant S. aureus ATCC 33591 (MRSA); assay: Antimicrobial microplate assay (modified CLSI); type: cell-based; details: Staphylococcus aureus
Protocol: as §2

[7] = 1-day-old larvae, mortality 24 hours post-treatment

Structure (SMILES): COc1cc(/C=C/c2ccc(O)c(CC=C(C)C)c2)cc(OC)c1 [Compound 11, (E)-4-(3,5-dimethoxystyryl)-2-(3-methylbut-2-en-1-yl)phenol]
- effectiveness against adult mosquitoes (in words) ([1]; both strains): somewhat effective
- effectiveness against larvae (in words) ([2]; ORL and PR strains): highly effective
- Percent Mortality ([2]; ORL strain, 0.1 μg/μl): 100%
- Percent Mortality ([2]; ORL strain, 0.25 μg/μl): 100%
- Percent Mortality ([2]; ORL strain, 0.5 μg/μl): 100%
- Percent Mortality ([2]; ORL strain, 1.0 μg/μl): 100%
- Percent Mortality ([2]; PR strain, 0.1 μg/μl): 93.3 ± 11.5%
- Percent Mortality ([2]; PR strain, 0.25 μg/μl): 100%
- Percent Mortality ([2]; PR strain, 0.5 μg/μl): 100%
- Percent Mortality ([2]; PR strain, 1.0 μg/μl): 100%
- IC50 [3]: 47.2 µM
- MIC [3]: 61.7 µM (≈ 20 µg/mL)
- LC50 (LD50 converted to μM) (Ae. aegypti larvae; 1-day-old larvae, 24 hours): 45.31 µM
- LD50 (95% CI) (Ae. aegypti larvae; [7]): 14.7^b ppm
- LD90 (95% CI) (Ae. aegypti larvae; [7]): 34.7 ppm
- larvicidal activity (in words) (Ae. aegypti larvae; screening at 100, 50 and 25 ppm): high larvicidal activity
- IC50 [4]: 13.6 µM
- MIC [4]: 30.8 µM (≈ 10 µg/mL)
- IC50 [5]: 13.1 µM
- MIC [5]: 30.8 µM (≈ 10 µg/mL)
- IC50 [6]: 9.1 µM
- MIC [6]: 15.4 µM (≈ 5 µg/mL)

Structure (SMILES): CC1(C)C(C=C(Cl)Cl)C1C(=O)OCc1cccc(Oc2ccccc2)c1 (centres unmarked) [Permethrin, permethrin, reference compound]
- Percent Mortality ([1]; ORL strain): 100%
- Percent Mortality ([1]; PR strain): 85 ± 10%
- Percent Mortality ([2]; ORL strain, 0.1 μg/μl): 100%
- Percent Mortality ([2]; PR strain, 0.1 μg/μl): 93.3 ± 11.5%
